Reference: patent publication US20240325358A1, “PHARMACEUTICAL COMPOSITION FOR PREVENTION OR TREATMENT OF ALLERGIC SKIN DISEASE OR SKIN PRURITUS” (CUePEAK BIO. Co., Ltd., priority 2023, published 2024)

Assays:
[1] = tested on: filaggrin; experiment: Expression amount of filaggrin in NHEK by RNA extraction and RT-qPCR; format: cell-based, human; conditions: NHEK, 0, 0.5, 1.0 and 2.5 μM, after 24 hours of treatment; FIGS. 1A and 1B
Description: (§1) • A human epidermal cell line (normal human epidermal keratinocyte; NHEK) is a human fetal transdermal cell line and was used after being distributed from ATCC.
(§2) It was a cell obtained from primary culture and was used for confirming biochemical changes within the cell by ABT-751 or TN-16 under normal conditions, not disease conditions. • Experimental animal: Since a hos:HR-1(hairless) mouse has no hair in skin disease research, it allows skin-related research to be performed by directly applying a drug on skin or inducing skin diseases by chemical or biological allergen.
A normal human epidermal keratinocyte (NHEK) on which ABT-751, TN-16, or a control sample was applied, or a mouse skin tissue was dissolved using a TRI reagent (MRC), and then RNA in cells was extracted using Rneasy Mini Kit (Qiagen).
The extracted RNA was reverse-transcribed with ImProm-II TM Reverse Transcription Kit (Promega) to synthesize cDNA, and then an amount of filaggrin was measured by a quantitative PCR (qPCR) through Real-Time PCR Detection System (Bio-Rad, CFX96).
The normal human epidermal keratinocytes (NHEK) in culture was treated with ABT-751 and TN-16, respectively to measure the expression amount of filaggrin and confirm a change in cell differentiation degree. […]

[2] = tested on: normal human epidermal keratinocytes (NHEK); experiment: Cell differentiation degree in normal human epidermal keratinocytes; format: cell-based; conditions: 24 hours of treatment, compared with untreated control group, FIG. 2
Description: as §1, §2
The normal human epidermal keratinocytes (NHEK) in culture was treated with ABT-751 and TN-16, respectively to measure the expression amount of filaggrin and confirm a change in cell differentiation degree.
NHEK was treated with ABT-751 and TN-16 by concentrations of 0, 0.5, 1.0, and 2.5 μM, respectively, and after 24 hours of treatment, the expression amount of filaggrin and the cell differentiation degree were observed.

[3] = tested on: filaggrin; experiment: Expression amount of filaggrin in HR-1 mouse back skin tissue (RT-qPCR and Western blot); format: in vivo, hos:HR-1 mouse; conditions: HR-1 mouse back skin, 1, 2 and 4% formulations applied once a day, vs 0% formulation control; RNA and protein; FIGS. 3A to 3C
Description: as §2
In addition, it has a skin thickness of about 0.4 mm at 8 to 10 weeks of age, which is similar to the skin of a human, and is useful for research on pathogenesis mechanism of skin diseases and confirmation of biochemical changes in skin tissue. […]
The extracted RNA was reverse-transcribed with ImProm-II TM Reverse Transcription Kit (Promega) to synthesize cDNA, and then an amount of filaggrin was measured by a quantitative PCR (qPCR) through Real-Time PCR Detection System (Bio-Rad, CFX96). […]
The thin film was reacted with an ECL solution (Thermo Fisher), and the protein after the reaction was detected using a luminescence reaction measuring instrument (Fusion Solo, Vilber). […]
Each of RNA and protein was extracted from the back skin tissue on which ABT-751 or TN-16 was applied, respectively, by the method of the text example and the expression amount of filaggrin was measured, and the results are shown in FIG. 3.

[4] = tested on: HR-1 mouse skin; experiment: Skin barrier function test (skin moisture loss, skin barrier index) in HR-1 mouse; format: in vivo, hos:HR-1 mouse; conditions: 4% formulation applied on back skin once a day, vs 0% formulation, effect grew with days of application, FIG. 4
Description: as §2
In addition, it has a skin thickness of about 0.4 mm at 8 to 10 weeks of age, which is similar to the skin of a human, and is useful for research on pathogenesis mechanism of skin diseases and confirmation of biochemical changes in skin tissue.
2 hours after applying ABT-751 or TN-16, skin moisture loss, a skin barrier index, and a comprehensive index on the application area were measured for 3 weeks with a precision measuring instrument (Courage-khazaka electronic GmbH, MPA10), and recorded.
ABT-751 and TN-16 of 0, 1, 2, and 4% formulations were applied on the back skin of a hairless hos:HR-1 mouse (hereinafter, referred to as HR-1 mouse) in the same amount once a day for 3 weeks, respectively.
After each application, skin moisture loss and a skin barrier index were measured by the method of the test example.
After applying the control group (0% formulation ABT-751 or 0% formulation TN-16) and ABT-751 or TN-16 of a 4% formulation, respectively, skin moisture loss and a skin barrier index were measured, and the results are shown in FIG. 4.

| SMILES | expression amount of filaggrin [1] | cell differentiation degree [2] | expression amount of filaggrin in the skin tissue [3] | skin barrier index [4] | skin moisture loss [4] |
| --- | --- | --- | --- | --- | --- |
| COc1ccc(S(=O)(=O)Nc2cccnc2Nc2ccc(O)cc2)cc1 [ABT-751, N-[2-[(4-Hydroxyphenyl)amino]pyridin-3-yl]-4-methoxybenzenesulfonamide] | increased depending on the ABT-751 and TN-16 treatment concentrations | significantly increased | increased in a concentration-dependent manner | increased | decreased |
| C/C(Nc1ccccc1)=C1/C(=O)NC(Cc2ccccc2)C1=O (stereo not drawn) [TN-16, 3-[1-(phenylamino)ethylidene]-5-(phenylmethyl)-2,4-pyrrolidinedione] | increased depending on the ABT-751 and TN-16 treatment concentrations | – | increased in a concentration-dependent manner | increased | decreased |
